20 compounds from patent publication US11186592B2, “Thiazolopyridine derivatives as adenosine receptor antagonists” (MERCK PATENT GMBH, priority 2017, dated 2021) can be followed below.

Common to all, as to format: cell-based
Test [1] deals with T1, human A2A receptor (Homo sapiens, UniProt P29274).
T1 construct: expressed in transfected cells; host or cells: HEK293
Briefly: cAMP (HTRF) functional assay, recombinant HEK293 cells expressing human A2A receptor, agonist NECA. The protocol:
(§1) The functional activities of human A2A, A2B, A1 and A3 receptors were determined by quantification of cAMP, being the second messenger for adenosine receptors.
(§2) Cells were seeded into 384-well plates, forskolin, test compounds and agonists (CPA for A1- and IB-MECA for A3-receptor) were added. After 30 min incubation, HTRF reagents (cAMP dynamic 2, Cis Bio) were added and the cellular cAMP levels were determined using the ENVISION (Perkin Elmer) plate reader. Obtained raw data were normalized against the inhibitor control and the neural control (DMSO) and the normalized data were fitted using GeneData software.

Test [2] has as its target T2, human A2B receptor (Homo sapiens, UniProt P29275).
T2 construct: expressed in transfected cells; host or cells: HEK293
T2 sequence (P29275 1-332): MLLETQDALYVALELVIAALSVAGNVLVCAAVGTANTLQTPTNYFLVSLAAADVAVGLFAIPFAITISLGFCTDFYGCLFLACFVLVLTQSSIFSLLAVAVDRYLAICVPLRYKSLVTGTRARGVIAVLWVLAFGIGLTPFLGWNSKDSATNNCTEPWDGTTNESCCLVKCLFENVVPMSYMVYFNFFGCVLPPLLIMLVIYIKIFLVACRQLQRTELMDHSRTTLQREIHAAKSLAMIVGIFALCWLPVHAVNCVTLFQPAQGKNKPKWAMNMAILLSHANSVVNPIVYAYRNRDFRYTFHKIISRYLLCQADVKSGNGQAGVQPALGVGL
The test can be described thus: cAMP (HTRF) functional assay, recombinant HEK293 cells expressing human A2B receptor, agonist NECA. The protocol: as §1, §2
(In general: Time-resolved FRET reads energy transfer from a long-lived donor to a nearby acceptor.)

The target of test [3] is T3, human A1 receptor (Homo sapiens, UniProt P30542).
T3 construct: expressed in transfected cells; host or cells: CHO
T3 sequence (P30542 1-326): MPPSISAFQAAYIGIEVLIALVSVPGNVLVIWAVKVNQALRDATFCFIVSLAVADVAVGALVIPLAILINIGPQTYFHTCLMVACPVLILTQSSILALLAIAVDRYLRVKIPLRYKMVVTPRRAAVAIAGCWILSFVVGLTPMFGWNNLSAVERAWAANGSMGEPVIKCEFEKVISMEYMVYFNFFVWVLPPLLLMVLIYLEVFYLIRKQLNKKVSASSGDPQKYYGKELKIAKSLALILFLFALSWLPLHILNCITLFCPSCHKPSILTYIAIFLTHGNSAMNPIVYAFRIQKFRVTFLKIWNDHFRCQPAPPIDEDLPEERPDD
The test can be described thus: cAMP (HTRF) functional assay, recombinant CHO cells expressing human A1 receptor, forskolin + agonist CPA. The protocol: as §1
For human A1 and A3 receptors, recombinant CHO cells, expressing either A1 or A3-receptor, were used. As both receptors couple to Gi proteins, the assay protocol was adapted:
as §2

A value given as a limit tells only on which side of the number the result lay.

T1 sequence (P29274 whole entry): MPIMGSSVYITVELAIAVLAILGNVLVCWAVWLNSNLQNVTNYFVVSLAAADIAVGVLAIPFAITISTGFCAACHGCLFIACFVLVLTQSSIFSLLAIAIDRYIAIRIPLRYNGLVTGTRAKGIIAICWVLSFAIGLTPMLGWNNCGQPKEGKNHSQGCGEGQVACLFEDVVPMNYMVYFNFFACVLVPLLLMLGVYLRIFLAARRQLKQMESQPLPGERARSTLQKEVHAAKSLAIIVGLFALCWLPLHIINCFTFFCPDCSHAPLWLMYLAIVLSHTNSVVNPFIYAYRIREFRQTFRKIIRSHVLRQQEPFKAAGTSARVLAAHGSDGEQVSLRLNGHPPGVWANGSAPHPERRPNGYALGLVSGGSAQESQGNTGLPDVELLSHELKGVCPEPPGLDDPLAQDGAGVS

By IC50 is commonly meant the concentration that inhibits the measured activity by half. As for `COc1ncc(-c2cnn(C)c2)c2sc(NC(=O)c3ccc(CN(C)C)cc3)nc12` [compound 22, 4-Dimethylaminomethyl-N-[4-methoxy-7-(1-methyl-1H-pyrazol-4-yl)-thiazolo[4,5-c]pyridin-2-yl]-benzamide], the half-inhibitory concentration (IC50) in test [1] is less than 10 nM; in test [2], less than 100 nM; in test [3], greater than 1000 nM.
Regarding `COc1ncc(C2CCOCC2)c2sc(NC(=O)c3ccc(CN(C)C)cc3)nc12` [compound 27, 4-Dimethylaminomethyl-N-[4-methoxy-7-(tetrahydro-pyran-4-yl)-thiazolo[4,5-c]pyridin-2-yl]-benzamide], the concentration for half-maximal inhibition (IC50) in test [1] is less than 10 nM; in test [2], less than 100 nM; in test [3] it was greater than 1000 nM.
As for `COc1ncc(N2CCOCC2)c2sc(NC(=O)c3ccc(Cn4ccnc4)cc3)nc12` [compound 33, 4-Imidazol-1-ylmethyl-N-(4-methoxy-7-morpholin-4-yl-thiazolo[4,5-c]pyridin-2-yl)-benzamide], the IC50 in test [1] was less than 10 nM; in test [2], less than 100 nM; in test [3] it was greater than 1000 nM.
Turning to `COc1ncc(N2CCOCC2)c2sc(NC(=O)N3CCC4(CCCOC4)C3)nc12` (stereo not shown) [compound 34, 7-Oxa-2-aza-spiro[4.5]decane-2-carboxylic acid (4-methoxy-7-morpholin-4-yl-thiazolo[4,5-c]pyridin-2-yl)-amide], the figures for the IC50 in test [1] and in test [2] were less than 10 nM and less than 100 nM, respectively.
Consider `COc1ncc(-c2ccccc2)c2sc(NC(=O)c3ccc(CN4CCCC4=O)cc3)nc12` [compound 62, N-(4-Methoxy-7-phenyl-thiazolo[4,5-c]pyridin-2-yl)-4-(2-oxo-pyrrolidin-1-ylmethyl)-benzamide], for which the half-inhibitory concentration (IC50) is less than 10 nM in test [1], less than 100 nM in test [2] and less than 1000 nM in test [3].
In the case of `COc1ncc(-c2cnn(C)c2)c2sc(NC(=O)N3CCC4(CCCOC4)C3)nc12` (stereo not shown) [compound 80, 7-Oxa-2-aza-spiro[4.5]decane-2-carboxylic acid [4-methoxy-7-(1-methyl-1H-pyrazol-4-yl)-thiazolo[4,5-c]pyridin-2-yl]-amide], the results for the IC50 in test [1], in test [2] and in test [3] were less than 10 nM, less than 100 nM and greater than 1000 nM, respectively.
For the compound `COc1ncc(-c2cnn(C)c2)c2sc(NC(=O)N3CCC4(CCOCC4)C3)nc12` [compound 81, 8-Oxa-2-aza-spiro[4.5]decane-2-carboxylic acid [4-methoxy-7-(1-methyl-1H-pyrazol-4-yl)-thiazolo[4,5-c]pyridin-2-yl]-amide], the figures for the half-inhibitory concentration (IC50) in test [1], in test [2] and in test [3] were less than 10 nM, less than 100 nM and greater than 1000 nM, respectively.
With `COc1ncc(C2CCOCC2)c2sc(NC(=O)c3cnc(C)o3)nc12` [compound 147, 2-Methyl-oxazole-5-carboxylic acid [4-methoxy-7-(tetrahydro-pyran-4-yl)-thiazolo[4,5-c]pyridin-2-yl]-amide], the figures for the IC50 in test [1], in test [2] and in test [3] were less than 10 nM, less than 100 nM and greater than 1000 nM, respectively.
As for `COc1ncc(N2CCOCC2)c2sc(NC(=O)N3CC[C@@]4(CCCOC4)C3)nc12` [compound 168, (S)-7-Oxa-2-aza-spiro[4.5]decane-2-carboxylic acid (4-methoxy-7-morpholin-4-yl-thiazolo[4,5-c]pyridin-2-yl)-amide], the IC50 in test [1] is less than 10 nM; in test [2], less than 100 nM.
Taken in the same sequence, the figures for `COc1ncc(N2CCOCC2)c2sc(NC(=O)c3ccc(CN4CCCC4=O)cc3)nc12` [compound 170, N-(4-Methoxy-7-morpholin-4-yl-thiazolo[4,5-c]pyridin-2-yl)-4-(2-oxo-pyrrolidin-1-ylmethyl)-benzamide] were less than 10 nM and less than 100 nM.
For `COc1ncc(-c2cnn(C)c2)c2sc(NC(=O)N3CC[C@@]4(CCOC4)C3)nc12` [compound 172, (R)-2-Oxa-7-aza-spiro[4.4]nonane-7-carboxylic acid [4-methoxy-7-(1-methyl-1H-pyrazol-4-yl)-thiazolo[4,5-c]pyridin-2-yl]-amide], the half-inhibitory concentration (IC50) is less than 10 nM in test [1], less than 100 nM in test [2] and greater than 1000 nM in test [3].
`COc1ncc(-c2cnn(C)c2)c2sc(NC(=O)N3CC[C@@]4(CCCOC4)C3)nc12` [compound 176, (S)-7-Oxa-2-aza-spiro[4.5]decane-2-carboxylic acid [4-methoxy-7-(1-methyl-1H-pyrazol-4-yl)-thiazolo[4,5-c]pyridin-2-yl]-amide]: the IC50 in test [1] was less than 10 nM; in test [2], less than 100 nM; in test [3], greater than 1000 nM.
Taken in the same sequence, the figures for `COc1ncc(-c2cnn(C)c2)c2sc(NC(=O)N3CC[C@]4(CCCOC4)C3)nc12` [compound 177, (R)-7-Oxa-2-aza-spiro[4.5]decane-2-carboxylic acid [4-methoxy-7-(1-methyl-1H-pyrazol-4-yl)-thiazolo[4,5-c]pyridin-2-yl]-amide] were less than 10 nM, less than 100 nM and greater than 1000 nM.
Taken in the same sequence, the figures for `COc1ncc(C2CCOCC2)c2sc(NC(=O)c3ccc(CN4CCCC4=O)cc3)nc12` [compound 180, N-[4-Methoxy-7-(tetrahydro-pyran-4-yl)-thiazolo[4,5-c]pyridin-2-yl]-4-(2-oxo-pyrrolidin-1-ylmethyl)-benzamide] were less than 10 nM, less than 100 nM and less than 1000 nM.
With `COc1ncc(C2CCOCC2)c2sc(NC(=O)c3cnc(C)s3)nc12` [compound 181, 2-Methyl-thiazole-5-carboxylic acid [4-methoxy-7-(tetrahydro-pyran-4-yl)-thiazolo[4,5-c]pyridin-2-yl]-amide], the figures for the IC50 in test [1], in test [2] and in test [3] were less than 10 nM, less than 100 nM and less than 1000 nM, respectively.
Taken in the same sequence, the figures for `COc1ncc(-c2ccc(F)cc2)c2sc(NC(=O)N3CCC4(CCOCC4)C3)nc12` [compound 193, 8-Oxa-2-aza-spiro[4.5]decane-2-carboxylic acid [7-(4-fluoro-phenyl)-4-methoxy-thiazolo[4,5-c]pyridin-2-yl]-amide] were less than 10 nM, less than 100 nM and greater than 1000 nM.
Regarding `COc1ncc(-c2ccccc2)c2sc(NC(=O)N3CCC4(CCCC4N)CC3)nc12` (stereo not shown) [compound 201, 1-amino-N-{4-methoxy-7-phenyl-[1,3]thiazolo[4,5-c]pyridin-2-yl}-8-azaspiro[4.5]decane-8-carboxamide], the IC50 in test [1] was less than 10 nM; in test [2], less than 100 nM.
As to `COc1ncc(-c2ccncc2)c2sc(NC(=O)N3CCC4(CCOCC4)C3)nc12` [compound 212, 8-Oxa-2-aza-spiro[4.5]decane-2-carboxylic acid (4-methoxy-7-pyridin-4-yl-thiazolo[4,5-c]pyridin-2-yl)-amide], the IC50 was less than 10 nM in test [1], less than 100 nM in test [2] and greater than 1000 nM in test [3].
Regarding `COc1ncc(N2CCOCC2)c2sc(NC(=O)c3ccc(N4C(=O)CCC4=O)cc3)nc12` [compound 214, 4-(2,5-Dioxo-pyrrolidin-1-yl)-N-(4-methoxy-7-morpholin-4-yl-thiazolo[4,5-c]pyridin-2-yl)-benzamide], the half-maximal inhibitory concentration (IC50) in test [1] was less than 10 nM; in test [2], less than 100 nM; in test [3], greater than 1000 nM.
Take `COc1nc(F)c(-c2ccccc2)c2sc(NC(=O)N3CCC4(CCOCC4)C3)nc12` [compound 229, 8-Oxa-2-aza-spiro[4.5]decane-2-carboxylic acid (6-fluoro-4-methoxy-7-phenyl-thiazolo[4,5-c]pyridin-2-yl)-amide]: the half-inhibitory concentration (IC50) in test [1] and in test [2] was less than 10 nM in each case.
